Measured values as given in patent US20250188118A1, “LIQUID PHASE PEPTIDE SYNTHESIS METHODS” (AMGEN INC., priority 2023, published 2025).
Converted amounts (≈) assume the structure as drawn.

Experiments:
[1] = C18 tag solubility in screening solvents (slurry agitated overnight, supernatant assayed by calibrated HPLC); format: physicochemical; conditions: organic solvent or mixture, thermodynamic from solid, 20 °C
Procedure: Provided in this section is an analysis of the solubility of the C18 tag in various organic solvents. All starting materials are either commercially available from Sigma-Aldrich, Oakwood Chemicals, ChemPep Inc., CombiBlocks, or similar vendors, unless otherwise noted, or known in the art and may be synthesized by employing known procedures using ordinary skill.
(3,4,5-trioctadecoxyphenyl)methanol (200 mg) was measured out into a series of 1-dram vials. 1 mL of a screening solvent was added to its corresponding 1-dram vial. The slurry vials were placed on a shaker plate set to 20° C. and agitated overnight. Following agitation, the slurries were transferred to centrifuge tubes and the supernatant was isolated. 100 μL of the isolated supernatant was diluted in 10 mL THF to provides solutions for HPLC analysis using the Agilent 1290 Infinity II system with a Cortecs UPLC C8 1.6 μm 2, 1×150 mm column with a dilution factor of 100. A typical run through the HPLC instrument used a column temperature of 30° C.; an injection volume of 1 μL; a method length of 15 min; a flow rate of 0.3 mL/min; UV Detection: 220 nm; Mobile Phase A: 0.1% TFA in water; Mobile Phase B: 0.1% TFA in ACN; HPLC Gradient: 0 min—95:5 (A:B), 10 min—5:95 (A:B), 13 min—95:5 (A:B). The sample solutions were assayed on a calibrated LC system, and the corresponding C18 tag concentrations are reported below.

[2] = in water at 23° C.; cited from earlier work

SMILES	solubility ([1]; solvent 2-Me-THF) [mg/mL]	solubility ([1]; solvent CPME) [mg/mL]	solubility ([1]; solvent Heptanes) [mg/mL]	solubility ([1]; solvent MTBE) [mg/mL]	solubility ([1]; solvent PhMe) [mg/mL]	solubility ([1]; solvent THF) [mg/mL]	solubility ([1]; solvent iPrOAc) [mg/mL]	miscibility in water [2] [g/100 g]
CCCCCCCCCCCCCCCCCCOc1cc(CO)cc(OCCCCCCCCCCCCCCCCCC)c1OCCCCCCCCCCCCCCCCCC [C18 Tag, (3,4,5-trioctadecoxyphenyl)methanol]	172 (≈ 189 mM)	6.8 (≈ 7.44 mM)	1.63 (≈ 1.78 mM)	43.8 (≈ 48 mM)	57.8 (≈ 63.3 mM)	≥ 200	1.81 (≈ 1.98 mM)	
CC1CCCO1 (centres unmarked) [Example 2-MeTHF, 2-methyltetrahydrofuran]								14
